Legend:
[1] = biological target: T1, cytokinin receptor AHK2 Δ (transformed cell TM182-AHK2 Δ) (Arabidopsis thaliana, UniProt Q9C5U2); experiment: Searching agonist-activity to cytokinin receptor (Part 1), optical density of liquid culture; assay type: cell-based; set-up: one added initiator methionine (ATG added 5' of codon 196) (N); expressed in transfected cells; host or cells: Saccharomyces cerevisiae TM182 (sln1 deletion), plasmid p415CYC-AHK2 Δ; conditions: examinee substance 100 μM final concentration, DOLU+Gul medium, 30° C., 24 hours; DMSO blank 0
T1 sequence (Q9C5U2 196-1176): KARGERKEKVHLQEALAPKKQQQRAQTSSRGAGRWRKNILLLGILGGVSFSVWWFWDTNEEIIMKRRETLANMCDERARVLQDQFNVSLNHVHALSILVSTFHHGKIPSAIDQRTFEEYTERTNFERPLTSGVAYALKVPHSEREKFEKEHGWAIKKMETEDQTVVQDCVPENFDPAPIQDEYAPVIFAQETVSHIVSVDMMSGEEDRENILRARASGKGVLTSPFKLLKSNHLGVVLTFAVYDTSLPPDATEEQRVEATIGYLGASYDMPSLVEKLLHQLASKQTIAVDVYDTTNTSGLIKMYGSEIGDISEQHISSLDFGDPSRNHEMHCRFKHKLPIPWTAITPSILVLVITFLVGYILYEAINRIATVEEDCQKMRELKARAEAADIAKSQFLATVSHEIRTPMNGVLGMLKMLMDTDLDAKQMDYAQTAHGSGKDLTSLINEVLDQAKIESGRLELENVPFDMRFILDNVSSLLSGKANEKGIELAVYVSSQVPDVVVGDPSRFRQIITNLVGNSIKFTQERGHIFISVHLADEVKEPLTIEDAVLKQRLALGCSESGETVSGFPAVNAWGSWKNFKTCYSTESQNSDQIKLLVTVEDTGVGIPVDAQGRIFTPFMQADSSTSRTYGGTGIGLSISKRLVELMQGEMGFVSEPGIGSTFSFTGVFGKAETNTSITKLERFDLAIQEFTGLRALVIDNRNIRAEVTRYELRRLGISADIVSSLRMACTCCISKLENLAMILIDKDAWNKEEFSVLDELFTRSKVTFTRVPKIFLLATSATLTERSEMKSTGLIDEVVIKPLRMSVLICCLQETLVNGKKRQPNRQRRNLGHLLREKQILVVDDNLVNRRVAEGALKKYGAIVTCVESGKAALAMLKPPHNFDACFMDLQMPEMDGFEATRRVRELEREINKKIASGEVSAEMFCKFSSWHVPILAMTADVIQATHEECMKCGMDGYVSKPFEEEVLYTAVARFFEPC
Experimental: The transformed cells TM182-CRE1, TM182-AHK2, TM182-AHK2 Δ and TM182-AHK3 produced in the example 12 were inoculated in 200 ml of DOLU+Gal culture media and pre-cultured at 30° C. for 36 hours. The pre-cultured solutions were diluted with DOLU+Gul media as to become 0.100 as the optical density (0D600) and further the resultants were diluted with DOLU+Gul media at a dilution rate of 1/200 to obtain diluted pre-cultured solutions.
An assay plate was prepared by filling respective wells of a 96-well plate with 20 μl of solutions which were prepared by diluting DMSO solution (10 mM) of each examinee substance with DOLU+Gul medium at a dilution rate of 1/100, said solutions containing each examinee substance to be 100 μM at the final concentration. […]
The diluted pre-cultured solutions were added in 200 μl each into the respective wells of both assay plates and cultured at 30° C. for 24 hours and then the optical density (0D620) of each well was measured by a plate reader. The agonist-activity of the examinee substances to the cytokinin receptor was detected by comparing the optical density measured in the testing sections to which the examinee substances were added with the optical density measured in the blank sections.

[2] = biological target: T1, cytokinin receptor AHK2 Δ (transformed cell TM182-AHK2 Δ); conditions: DOLU+Gul agar, concentrations 1 nM to 100 μM, 30° C., 30 hours
Experimental: (§1) After incubation, the growth state of the transformed cells was observed and photographed by a digital camera.
(§2) The lowest supply concentrations of trans-zeatin and cis-zeatin in which the respective transformed cells could be grown were shown in Table 1.

[3] = biological target: T2, cytokinin receptor CRE1 (transformed cell TM182-CRE1) (Arabidopsis thaliana, UniProt Q9C5U0, S567G/T1018A); conditions: DOLU+Gul agar, concentrations 1 nM to 100 μM, 30° C., 30 hours
T2 sequence (Q9C5U0 24-1080 S567G/T1018A): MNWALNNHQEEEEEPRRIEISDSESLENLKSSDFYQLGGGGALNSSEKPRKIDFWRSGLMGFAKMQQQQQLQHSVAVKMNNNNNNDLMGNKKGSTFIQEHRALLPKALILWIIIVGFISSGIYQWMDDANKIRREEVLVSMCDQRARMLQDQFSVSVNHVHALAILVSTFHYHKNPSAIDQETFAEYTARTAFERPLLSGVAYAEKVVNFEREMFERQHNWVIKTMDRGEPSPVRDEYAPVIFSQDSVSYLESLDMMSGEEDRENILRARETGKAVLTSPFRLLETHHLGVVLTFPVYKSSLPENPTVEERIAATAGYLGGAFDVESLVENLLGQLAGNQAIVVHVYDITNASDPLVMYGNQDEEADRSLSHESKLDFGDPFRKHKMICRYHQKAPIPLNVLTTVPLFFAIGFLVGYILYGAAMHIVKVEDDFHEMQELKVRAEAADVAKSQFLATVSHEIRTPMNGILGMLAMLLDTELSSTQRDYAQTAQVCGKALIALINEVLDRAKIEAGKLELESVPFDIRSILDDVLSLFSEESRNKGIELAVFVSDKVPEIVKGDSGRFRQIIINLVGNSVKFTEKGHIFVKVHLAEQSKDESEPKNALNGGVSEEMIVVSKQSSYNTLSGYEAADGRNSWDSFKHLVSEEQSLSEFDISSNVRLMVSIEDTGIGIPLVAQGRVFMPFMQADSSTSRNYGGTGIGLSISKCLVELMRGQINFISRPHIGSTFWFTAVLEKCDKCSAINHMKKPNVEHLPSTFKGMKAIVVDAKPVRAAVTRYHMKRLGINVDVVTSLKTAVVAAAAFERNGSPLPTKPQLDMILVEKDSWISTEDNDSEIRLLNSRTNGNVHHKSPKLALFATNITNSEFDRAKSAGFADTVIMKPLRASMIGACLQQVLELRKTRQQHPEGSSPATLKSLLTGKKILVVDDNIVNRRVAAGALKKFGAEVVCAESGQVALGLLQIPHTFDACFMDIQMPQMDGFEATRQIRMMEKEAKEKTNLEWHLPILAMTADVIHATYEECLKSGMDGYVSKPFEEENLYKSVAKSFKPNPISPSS
Experimental: as §1, §2

[4] = biological target: T3, cytokinin receptor AHK2 (transformed cell TM182-AHK2) (Arabidopsis thaliana, UniProt Q9C5U2); conditions: DOLU+Gul agar, concentrations 1 nM to 100 μM, 30° C., 30 hours
T3 sequence (Q9C5U2 1-1176): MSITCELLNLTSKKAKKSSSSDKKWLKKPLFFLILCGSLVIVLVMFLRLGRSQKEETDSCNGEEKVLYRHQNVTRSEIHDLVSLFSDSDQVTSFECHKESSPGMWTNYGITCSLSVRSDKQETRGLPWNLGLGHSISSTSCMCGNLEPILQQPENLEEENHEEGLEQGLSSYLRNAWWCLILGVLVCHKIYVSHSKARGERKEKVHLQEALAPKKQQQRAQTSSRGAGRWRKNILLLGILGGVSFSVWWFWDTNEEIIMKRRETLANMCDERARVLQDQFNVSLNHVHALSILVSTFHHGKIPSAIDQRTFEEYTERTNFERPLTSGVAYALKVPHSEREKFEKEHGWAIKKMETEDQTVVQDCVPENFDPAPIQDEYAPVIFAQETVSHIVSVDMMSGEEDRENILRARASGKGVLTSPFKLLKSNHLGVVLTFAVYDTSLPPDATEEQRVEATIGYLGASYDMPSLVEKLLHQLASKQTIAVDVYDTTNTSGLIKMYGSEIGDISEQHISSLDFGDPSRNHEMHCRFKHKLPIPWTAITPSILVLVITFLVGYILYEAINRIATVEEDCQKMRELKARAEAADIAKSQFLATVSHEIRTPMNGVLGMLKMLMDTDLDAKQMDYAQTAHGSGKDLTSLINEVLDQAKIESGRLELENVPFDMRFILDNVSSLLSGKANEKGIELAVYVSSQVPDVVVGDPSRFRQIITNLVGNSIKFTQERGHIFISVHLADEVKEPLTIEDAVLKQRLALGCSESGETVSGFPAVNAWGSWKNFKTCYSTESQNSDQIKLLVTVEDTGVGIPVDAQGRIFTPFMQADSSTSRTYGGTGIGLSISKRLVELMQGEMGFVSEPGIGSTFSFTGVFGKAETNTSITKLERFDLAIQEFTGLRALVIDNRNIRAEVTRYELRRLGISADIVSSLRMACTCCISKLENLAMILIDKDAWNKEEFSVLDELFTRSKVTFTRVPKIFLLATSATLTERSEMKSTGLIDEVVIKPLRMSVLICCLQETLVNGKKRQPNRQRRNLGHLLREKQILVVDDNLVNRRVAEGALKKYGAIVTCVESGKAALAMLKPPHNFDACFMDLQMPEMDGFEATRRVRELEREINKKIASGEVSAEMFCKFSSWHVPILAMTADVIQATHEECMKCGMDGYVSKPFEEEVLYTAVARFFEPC
Experimental: as §1, §2

[5] = biological target: T1, cytokinin receptor AHK2 Δ (transformed cell TM182-AHK2 Δ); conditions: DOLU+Gul agar containing 10 μM trans-zeatin, 30° C., 30 hours; compared with media containing no trans-zeatin
Experimental: (§3) Transformation of TM182 (S1n1 Δ), S1n1 genetically detected strain, [Maeda T et al. Nature: 369 242-245 (1994)] was carried out using the obtained expression plasmid p415CYC-CRE1 (the example 5), p415CYC-AHK2 (the example 11), p415CYC-AHK2Δ (the example 11) and p415CYC-AHK3 (the example 8). The transformation was carried out by employing Polyethylene glycol/lithium acetate (PEG/LiAc)-mediated transformation method according to the description of VII. Library Transformation & Screening Protocols disclosed in […] Two-Hybrid System 3 User Manual p.
as §1

[6] = biological target: T3, cytokinin receptor AHK2 (transformed cell TM182-AHK2); conditions: DOLU+Gul agar containing 10 μM trans-zeatin, 30° C., 30 hours; compared with media containing no trans-zeatin
Experimental: as §3, §1

[7] = biological target: T2, cytokinin receptor CRE1 (transformed cell TM182-CRE1); conditions: DOLU+Gul agar containing 10 μM trans-zeatin, 30° C., 30 hours; compared with media containing no trans-zeatin
Experimental: as §3, §1

[8] = biological target: T4, cytokinin receptor AHK3 (transformed cell TM182-AHK3) (Arabidopsis thaliana, UniProt Q9C5U1); conditions: DOLU+Gul agar containing 10 μM trans-zeatin, 30° C., 30 hours; compared with media containing no trans-zeatin
T4 sequence (Q9C5U1 1-1036): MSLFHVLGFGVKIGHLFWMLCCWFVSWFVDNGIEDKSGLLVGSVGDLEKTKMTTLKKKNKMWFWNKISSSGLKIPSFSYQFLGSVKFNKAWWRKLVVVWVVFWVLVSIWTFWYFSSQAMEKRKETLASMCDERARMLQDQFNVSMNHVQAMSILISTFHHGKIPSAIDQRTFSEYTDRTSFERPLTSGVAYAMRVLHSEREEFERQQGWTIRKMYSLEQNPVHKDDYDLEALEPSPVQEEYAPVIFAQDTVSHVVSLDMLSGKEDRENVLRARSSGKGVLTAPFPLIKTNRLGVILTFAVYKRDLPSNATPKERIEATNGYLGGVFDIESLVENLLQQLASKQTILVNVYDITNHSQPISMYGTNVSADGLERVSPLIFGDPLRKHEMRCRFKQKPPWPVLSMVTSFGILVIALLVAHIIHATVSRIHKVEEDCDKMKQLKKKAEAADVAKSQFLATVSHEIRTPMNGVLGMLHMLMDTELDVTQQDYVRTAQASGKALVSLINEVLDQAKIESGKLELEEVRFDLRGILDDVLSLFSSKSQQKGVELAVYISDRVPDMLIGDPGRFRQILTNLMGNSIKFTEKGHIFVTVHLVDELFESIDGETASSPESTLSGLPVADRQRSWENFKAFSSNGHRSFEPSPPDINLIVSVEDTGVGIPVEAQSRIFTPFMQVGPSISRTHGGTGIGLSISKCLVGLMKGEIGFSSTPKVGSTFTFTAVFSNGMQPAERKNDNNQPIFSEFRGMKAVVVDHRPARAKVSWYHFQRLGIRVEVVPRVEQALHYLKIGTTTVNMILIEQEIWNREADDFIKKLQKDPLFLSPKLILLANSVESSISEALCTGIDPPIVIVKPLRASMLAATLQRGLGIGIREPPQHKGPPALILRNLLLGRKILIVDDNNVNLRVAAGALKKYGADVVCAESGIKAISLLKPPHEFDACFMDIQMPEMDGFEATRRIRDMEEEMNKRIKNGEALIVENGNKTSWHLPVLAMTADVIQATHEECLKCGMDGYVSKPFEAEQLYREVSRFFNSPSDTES
Experimental: as §3, §1

For `CC1=CC(=O)CC(C)(C)[C@@]1(O)/C=C/C(C)=C\C(=O)O` [Compound A, Abscisic acid], the “optical density (OD620) of the culture solution, TM182-AHK2 Δ” value [1] was 0.
`C/C(=C/CNc1ncnc2nc[nH]c12)CO` [cis-zeatin] was tested, and the “lowest supply concentration in which the transformed cells could be grown, TM182-AHK2 A” value [2] was 1 µM and the “lowest supply concentration in which the transformed cells could be grown, TM182-CRE1” value [3] was “no growth”.
With `C/C(=C\CNc1ncnc2nc[nH]c12)CO` [trans-zeatin] the “lowest supply concentration in which the transformed cells could be grown, TM182-AHK2” value [4] was 1 µM, the “growth state of transformed cells TM182-AHK2 Δ” value [5] was “high growth” and the “growth state of transformed cells TM182-AHK2” value [6] was “high growth”. The “growth state of transformed cells TM182-CRE1” value [7] was “high growth” and the “growth state of transformed cells TM182-AHK3” value [8] was “high growth”.

— US20120122181A1, “METHOD FOR DETERMINING ANTAGONIST ACTIVITY TO A CYTOKININ RECEPTOR” (SUMITOMO CHEMICAL COMPANY, LIMITED, priority 2001, published 2012)
